Laboratory results reported in patent US5981517A, “Androstene derivatives” (priority 1997, dated 1999).

Legend:
[1] = physchem; type: physicochemical
Experimental: (§1) A Whatman C-18 column (4.6 mm×108 mm) was connected to a Spectra-Physics component system consisting of a SP 8810 precision isocratic pump, Rheodyne 7125 injector (20 μL injection volume), SP 8450 UV/VIS variable wavelength detector (230 nm), and SP 4290 integrator. The system was operated at ambient temperature. The mobile phase consisted of acetonitrile, acetic acid and water (60:0.1:40). At a flow rate of 1.0 mL/minute, the retention times for the test compounds were 4.74 minutes for Compound A, 5.84 minutes for Compound B, 6.93 minutes for Compound C, and 5.72 minutes for Compound D.
(§2) HPLC peak area and peak height were used as a measure of the concentration of the test compounds and plotted against time to evaluate the disappearance rates of the compounds. The stability was determined by measuring the pseudo-first order rate constant (kobs in min^-1) or half-life (t1/2 in min) of disappearance of the test compound in buffer. […].
The stabilities of test compounds A, B, C, and D, were tested in buffer solutions in the pH range of 4.0 to 9.0. A 0.1 mL portion of each compound at a concentration of 1 mM was mixed with 10 mL phosphate buffer (made by combining 0.05 M of NaH2 PO4 and 0.05 M of Na2 HPO4 with 0.05 M of NaCl) to give a final concentration of 0.01 mM. The mixtures were incubated at 37° C., and samples were taken and injected in the HPLC system at appropriate time intervals. pH profiles of each test compound are shown in TABLE III below. […]

[2] = Stability in human plasma; type: in vitro ADME; settings: human plasma, 100 μM, 37° C.
Experimental: (§3) A Waters NOVA-PAK phenyl column was connected to a Spectra-Physics component system consisting of a SP 8810 precision isocratic pump, a Rheodyne 7125 injector (injection volume 20 μL), an SP 8450 UV/VIS variable wavelength detector (operated at 254 nm) and a SP 4270 integrator. […]. The retention times of compound of the invention J and its metabolities L and M were 8.64, 2.70 and 2.45 minutes, respectively. The retention times of compound of the invention I and its metabolites N and 0 were 5.84, 2.70 and 1.81 minutes, respectively. The retention time of cortienic acid was 1.00 minute.
(§4) Freshly collected human or rat plasma was used. An aliquot of 10 mM test compound in ethanol solution was added to prewarmed (37° C.) plasma to yield a final concentration of 100 μM. At appropriate time intervals, samples (0.1 mL) were removed and mixed with 0.2 mL of 5% dimethylsulfoxide/acetonitrile solution. Mixtures were centrifuged and supernatants were analyzed by HPLC. The pseudo-first order rate constant of the disappearance of compound in the biological media was determined by linear regression analysis from the plot of log peak area and peak height versus time.
(§5) Stability was evaluated by the pseudo first-order rate constant (k, hr^-1) and half-life (t1/2, hr) of the disappearance of the test compound in the media.

[3] = Stability in liver homogenate; type: in vitro ADME, rat; settings: 20% rat liver homogenate, 0.1 mM, 37° C.; read-out: Half-life (t1/2), Liver
Experimental: as §1, §2
(§6) A 0.2 mL aliquot of stock solution (1 mM) of each of the test compounds A, B, C, and D, was added to 2 mL of each biological media (whole heparinized rat blood, 20% rat liver homogenate, and 6-volume diluted lung homogenate in isotonic buffer of pH 7.40 made by combining 0.05 M of Na2 HPO4 and 0.05 M of NaH2 PO4 with 0.05 M of NaCl), which was kept in a 37° C. water bath, to obtain a final concentration of 0.1 mM in each biological medium. Samples of 0.1 mL were taken at appropriate time intervals for 2 hours (at 0, 3, 5, 10, 20, 40, 60, 90 and 120 minutes) and mixed with 0.2 mL of acetonitrile containing 5% DMSO. Each mixture was centrifuged and the supernatant was injected in the HPLC.

[4] = tested on: forearm of a human volunteer; assay: Human vasoconstriction test; type: in vivo; set-up: key: 0 = normal skin, 4 = very intense pallor; settings: 10 mM
[5] = Stability in lung homogenate; type: in vitro ADME; settings: rat; 6-volume diluted lung homogenate, 0.1 mM, 37° C.; read-out: Half-life (t1/2), Lung
Experimental: as §1, §2, §6

[6] = Stability in rat plasma; type: in vitro ADME; settings: rat plasma, 100 μM, 37° C.
Experimental: as §3, §4, §5

[7] = Stability in rat blood; type: in vitro ADME; settings: rat blood, 0.1 mM, 37° C.; read-out: Half-life (t1/2), Blood
Experimental: as §1, §2, §6

CCOC(=O)[C@@]1(OC(=O)C(Cl)Cl)CC[C@H]2[C@@H]3CCC4=CC(=O)C=C[C@]4(C)[C@H]3[C@@H](O)C[C@@]21C [Compound B, Ethyl 17α-dichloroacetoxy-11β-hydroxyandrosta-1,4-dien-3-one-17β-carboxylate]
half-life ([1]; aqueous phosphate buffer, pH 4.5): > 48 h
half-life ([1]; aqueous phosphate buffer, pH 6.56): 16.7 h
half-life ([1]; aqueous phosphate buffer, pH 7.4): 5.08 h
half-life ([1]; aqueous phosphate buffer, pH 8.08): 0.867 h
half-life ([1]; aqueous phosphate buffer, pH 9): 0.144 h
half-life ([1]; buffer, pH 7.4): 5.08 h
k (pseudo first-order rate constant) [2]: 0.138 h⁻¹
half-life at 100 µM ([2]; read-out: t1/2 (converted)): 5.03 h
half-life at 100 µM [3]: 0.313 h
Vasoconstriction activity ([4]; 1 hour after patch removal): 3
Vasoconstriction activity ([4]; 8 hours after patch removal): 4
Vasoconstriction activity ([4]; 17 hours after patch removal): 4
Vasoconstriction activity ([4]; 24 hours after patch removal): 4
half-life at 100 µM [5]: 2.29 h
k (pseudo first-order rate constant) [6]: 0.136 h⁻¹
half-life at 100 µM ([6]; read-out: t1/2 (converted)): 5.08 h
half-life at 100 µM [7]: 1.29 h
